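1) Cells in 96-well plates. 2) Compound, 48 h, 5 concentrations. 3) Linear interpolation between surrounding doses. 4) Unreached endpoint = highest concentration. GI50: concentration for 50% inhibition of growth. TGI: concentration producing complete growth inhibition.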
Assays:
Experiment in all cases: growth of human tumour cells (NCI), 48 h
786-0 renal = tested on: 786-0 renal
CAKI-1 renal = tested on: CAKI-1 renal
CCRF-CEM leukemia = tested on: CCRF-CEM leukemia
DU-145 prostate = tested on: DU-145 prostate
HCT-116 colon = tested on: HCT-116 colon
HCT-15 colon = tested on: HCT-15 colon
HL-60(TB) leukemia = tested on: HL-60(TB) leukemia
KM12 colon = tested on: KM12 colon
M14 melanoma = tested on: M14 melanoma
MDA-MB-435 = tested on: MDA-MB-435
NCI-H226 lung = tested on: NCI-H226 lung
NCI-H23 lung = tested on: NCI-H23 lung
NCI-H460 lung = tested on: NCI-H460 lung
NCI-H522 lung = tested on: NCI-H522 lung
OVCAR-4 ovarian = tested on: OVCAR-4 ovarian
OVCAR-8 ovarian = tested on: OVCAR-8 ovarian
PC-3 prostate = tested on: PC-3 prostate
RPMI-8226 leukemia = tested on: RPMI-8226 leukemia
SF-268 CNS = tested on: SF-268 CNS
SN12C renal = tested on: SN12C renal
SNB-19 CNS = tested on: SNB-19 CNS
SNB-75 CNS = tested on: SNB-75 CNS
SR leukemia = tested on: SR leukemia
SW-620 colon = tested on: SW-620 colon
T-47D breast = tested on: T-47D breast
U251 CNS = tested on: U251 CNS

COc1ncc(-c2ccc3ncnc(Nc4cccc(Cl)c4)c3c2)cc1NS(=O)(=O)CCN1CCOCC1
GI50 (786-0 renal): 298 nM
TGI (786-0 renal): > 100000 nM
GI50 (CAKI-1 renal): 345 nM
TGI (CAKI-1 renal): > 100000 nM
GI50 (CCRF-CEM leukemia): 799 nM
TGI (CCRF-CEM leukemia): > 100000 nM
GI50 (DU-145 prostate): 297 nM
TGI (DU-145 prostate): > 100000 nM
GI50 (HCT-116 colon): 1490 nM
TGI (HCT-116 colon): > 100000 nM
GI50 (HCT-15 colon): 448 nM
TGI (HCT-15 colon): > 100000 nM
GI50 (HL-60(TB) leukemia): 380 nM
TGI (HL-60(TB) leukemia): > 100000 nM
GI50 (KM12 colon): 1810 nM
TGI (KM12 colon): > 100000 nM
GI50 (M14 melanoma): 755 nM
TGI (M14 melanoma): > 100000 nM
GI50 (MDA-MB-435): 534 nM
TGI (MDA-MB-435): > 100000 nM
GI50 (NCI-H226 lung): 659 nM
TGI (NCI-H226 lung): > 100000 nM
GI50 (NCI-H23 lung): 768 nM
TGI (NCI-H23 lung): > 100000 nM
GI50 (NCI-H460 lung): 393 nM
TGI (NCI-H460 lung): > 100000 nM
GI50 (NCI-H522 lung): 402 nM
TGI (NCI-H522 lung): 8600 nM
GI50 (OVCAR-4 ovarian): 1140 nM
TGI (OVCAR-4 ovarian): > 100000 nM
GI50 (OVCAR-8 ovarian): 700 nM
TGI (OVCAR-8 ovarian): > 100000 nM
GI50 (PC-3 prostate): 326 nM
TGI (PC-3 prostate): > 100000 nM
GI50 (RPMI-8226 leukemia): 1230 nM
TGI (RPMI-8226 leukemia): > 100000 nM
GI50 (SF-268 CNS): 382 nM
TGI (SF-268 CNS): > 100000 nM
GI50 (SN12C renal): 293 nM
TGI (SN12C renal): > 100000 nM
GI50 (SNB-19 CNS): 945 nM
TGI (SNB-19 CNS): > 100000 nM
GI50 (SNB-75 CNS): < 10 nM
TGI (SNB-75 CNS): 739 nM
GI50 (SR leukemia): 653 nM
TGI (SR leukemia): > 100000 nM
GI50 (SW-620 colon): 1250 nM
TGI (SW-620 colon): > 100000 nM
GI50 (T-47D breast): < 10 nM
TGI (T-47D breast): 600 nM
GI50 (U251 CNS): 824 nM
TGI (U251 CNS): > 100000 nM

Source: PubChem BioAssay (NCI)
